Source: ChEMBL document CHEMBL1135357, “Anti-MRSA activity of alkyl gallates” (2002)
Converted amounts (≈) assume the structure as drawn.

Experiments:
Format in all cases: functional
[1] = test system: Staphylococcus aureus; test: Compound was tested for antibacterial activity against MRSA ATCC 33591, expressed as minimum bactericidal concentration (MBC)
[2] = test system: Staphylococcus aureus; test: Compound was tested for antibacterial activity against MRSA ATCC 33591, expressed as minimum inhibitory concentration (MIC)
[3] = test system: Bacillus subtilis; test: Compound was tested for antibacterial activity against Bacillus subtilis
[4] = test system: Bacillus thuringiensis; test: Compound was tested for antibacterial activity against Bacillus thuringiensis
[5] = test system: Corynebacterium ammoniagenes; test: Compound was tested for antibacterial activity against Brevibacterium ammoniagenes
[6] = test system: Micrococcus luteus; test: Compound was tested for antibacterial activity against Micrococcus luteus
[7] = test system: Cutibacterium acnes; test: Compound was tested for antibacterial activity against Propionibacterium acnes
[8] = test system: Staphylococcus aureus; test: Compound was tested for antibacterial activity against Staphylococcus aureus
[9] = test system: Staphylococcus aureus; test: Compound was tested for antibacterial activity against Staphylococcus aureus (MRSA)
[10] = test system: Staphylococcus aureus; test: Compound was tested for antibacterial activity against MRSA ATCC 33591, expressed as aminimum inhibitory concentration (MIC)
[11] = test system: Streptococcus mutans; test: Compound was tested for antibacterial activity against Streptococcus mutans

| SMILES | MIC [2] [µg/mL] | MBC [1] [µg/mL] | also measured |
| --- | --- | --- | --- |
| CCCCCCCCCCCOC(=O)c1cccc(O)c1 | 50 (≈ 171 µM) | 50 (≈ 171 µM) | – |
| CCCCCCOC(=O)c1cc(O)c(O)c(O)c1 [HEXYL GALLATE] | 50 (≈ 197 µM) | 200 (≈ 787 µM) | – |
| CCCOC(=O)c1cc(O)c(O)c(O)c1 [PROPYL GALLATE] | 1600 (≈ 7540 µM) | 3200 (≈ 15100 µM) | – |
| COc1cccc(OC)c1C(=O)N[C@@H]1C(=O)N2[C@@H]1SC(C)(C)[C@@H]2C(=O)O [METHICILLIN] | 800 (≈ 2100 µM) | > 800 | – |
| CCCCCCCCOC(=O)c1cc(O)c(O)c(O)c1 [OCTYL_GALLATE] | 25 (≈ 88.5 µM) | 50 (≈ 177 µM) | – |
| CCCCCCCCCCCOC(=O)c1cc(O)cc(O)c1 | 50 (≈ 162 µM) | 50 (≈ 162 µM) | – |
| CCCCCCCCCCCCOC(=O)c1cc(O)c(O)c(O)c1 [DODECYL GALLATE] | – | 25 (≈ 73.9 µM) | MBC [3]: 25 µg/mL (≈ 73.9 µM); MIC [3]: 25 µg/mL (≈ 73.9 µM); MIC [4]: 50 µg/mL (≈ 148 µM); MBC [5]: 25 µg/mL (≈ 73.9 µM); MIC [5]: 25 µg/mL (≈ 73.9 µM); MBC [6]: 25 µg/mL (≈ 73.9 µM); MIC [6]: 12.5 µg/mL (≈ 36.9 µM); MBC [7]: 6.25 µg/mL (≈ 18.5 µM); MIC [7]: 6.25 µg/mL (≈ 18.5 µM); MBC [8]: 25 µg/mL (≈ 73.9 µM); MIC [8]: 12.5 µg/mL (≈ 36.9 µM); MBC [9]: 25 µg/mL (≈ 73.9 µM); MIC [9]: 12.5 µg/mL (≈ 36.9 µM); MIC [10]: 12.5 µg/mL (≈ 36.9 µM); MBC [11]: 100 µg/mL (≈ 295 µM); MIC [11]: 100 µg/mL (≈ 295 µM) |

Further lines, with some results ahead:

| MIC [2] [µg/mL] | SMILES | MBC [1] [µg/mL] | also measured |
| --- | --- | --- | --- |
| 25 (≈ 93.2 µM) | CCCCCCCOC(=O)c1cc(O)c(O)c(O)c1 [HEPTYL GALLATE] | 100 (≈ 373 µM) | – |
| 25 (≈ 84.4 µM) | CCCCCCCCCOC(=O)c1cc(O)c(O)c(O)c1 [NONYL GALLATE] | 50 (≈ 169 µM) | – |
| 12.5 (≈ 38.5 µM) | CCCCCCCCCCCOC(=O)c1cc(O)c(O)c(O)c1 [UNDECYL GALLATE] | 25 (≈ 77.1 µM) | – |
| 12.5 (≈ 40.3 µM) | CCCCCCCCCCOC(=O)c1cc(O)c(O)c(O)c1 [DECYL GALLATE] | 25 (≈ 80.5 µM) | – |
